ChEMBL document CHEMBL1124634, “Synthesis and antirhinovirus activity of 6-(dimethylamino)-2-(trifluoromethyl)-9-(substituted benzyl)-9H-purines” (J Med Chem, 1989)

Tests used:
[1] = test system: Human rhinovirus sp.; test: Antiviral activity against rhinoviral-19 serotype in a plaque inhibition assay using monolayers of M-HeLa cells; type: functional, organism-based
[2] = test system: Human rhinovirus sp.; test: Antiviral activity against rhinoviral 15 serotype in a plaque inhibition assay using monolayers of M-HeLa cells; type: functional, organism-based
[3] = test system: Human rhinovirus sp.; test: Antiviral activity against rhinoviral 12 serotype in a plaque inhibition assay using monolayers of M-HeLa cells; type: functional, organism-based
[4] = test system: Human rhinovirus sp.; test: Percent inhibitory activity at 8 uM against rhinoviral 21 serotype in a plaque inhibition assay using monolayers of M-HeLa cells; type: functional
[5] = Percent inhibitory activity at 5 uM against rhinoviral 16 serotype in a plaque inhibition assay using monolayers of M-HeLa cells; type: functional, Homo sapiens
[6] = Percent inhibitory activity at 2.5 uM against rhinoviral 8 serotype in a plaque inhibition assay using monolayers of M-HeLa cells; type: functional, Homo sapiens
[7] = test system: Human rhinovirus sp.; test: Antiviral activity against rhinoviral 29 serotype in a plaque inhibition assay using monolayers of M-HeLa cells; type: functional, organism-based
[8] = test system: Human rhinovirus sp.; test: Antiviral activity against rhinoviral-18 serotype in a plaque inhibition assay using monolayers of M-HeLa cells; type: functional, organism-based
[9] = test system: Human rhinovirus sp.; test: Antiviral activity against rhinoviral-1A serotype in a plaque inhibition assay using monolayers of M-HeLa cells; type: functional, organism-based
[10] = test system: Human rhinovirus sp.; test: Antiviral activity against rhinoviral 30 serotype in a plaque inhibition assay using monolayers of M-HeLa cells; type: functional, organism-based
[11] = test system: Human rhinovirus sp.; test: Percent inhibitory activity at 8 uM against rhinoviral 5 serotype in a plaque inhibition assay using monolayers of M-HeLa cells; type: functional
[12] = Percent inhibitory activity at 2.5 uM against rhinoviral 4 serotype in a plaque inhibition assay using monolayers of M-HeLa cells; type: functional, Homo sapiens
[13] = test system: Human rhinovirus sp.; test: Antiviral activity against rhinoviral 2 serotype in a plaque inhibition assay using monolayers of M-HeLa cells; type: functional, organism-based
[14] = Percent inhibitory activity at 2.5 uM against rhinoviral 3 serotype in a plaque inhibition assay using monolayers of M-HeLa cells; type: functional, Homo sapiens
[15] = test system: Human rhinovirus sp.; test: (§1) Antiviral activity against rhinoviral 9 serotype in a plaque inhibition assay using monolayers of M-HeLa cells; type: functional, organism-based
[16] = test system: Human rhinovirus sp.; test: Antiviral activity against rhinoviral 14 serotype in a plaque inhibition assay using monolayers of M-HeLa cells; type: functional, organism-based
[17] = test system: Human rhinovirus sp.; test: Antiviral activity against rhinoviral 31 serotype in a plaque inhibition assay using monolayers of M-HeLa cells; type: functional, organism-based
[18] = Antiviral activity against rhinoviral 13 serotype in a plaque inhibition assay using monolayers of M-HeLa cells; type: functional, cell-based; settings: Homo sapiens
[19] = test system: Human rhinovirus sp.; test: Antiviral activity against rhinoviral-1B serotype in a plaque inhibition assay using monolayers of M-HeLa cells; type: functional, organism-based
[20] = test system: Human rhinovirus sp.; test: Percent inhibitory activity at 8 uM against rhinoviral 30 serotype in a plaque inhibition assay using monolayers of M-HeLa cells; type: functional
[21] = test system: Human rhinovirus sp.; test: Antiviral activity against rhinoviral 5 serotype in a plaque inhibition assay using monolayers of M-HeLa cells; type: functional, organism-based
[22] = Percent inhibitory activity at 8 uM against rhinoviral 18 serotype in a plaque inhibition assay using monolayers of M-HeLa cells; type: functional, Homo sapiens
[23] = test system: Human rhinovirus sp.; test: Percent inhibitory activity at 8 uM against rhinoviral 3 serotype in a plaque inhibition assay using monolayers of M-HeLa cells; type: functional
[24] = test system: Human rhinovirus sp.; test: Antiviral activity against rhinoviral 8 serotype in a plaque inhibition assay using monolayers of M-HeLa cells; type: functional, organism-based
[25] = test system: Human rhinovirus sp.; test: Antiviral activity against rhinoviral 4 serotype in a plaque inhibition assay using monolayers of M-HeLa cells; type: functional, organism-based
[26] = test system: Human rhinovirus sp.; test: Antiviral activity against rhinoviral 16 serotype in a plaque inhibition assay using monolayers of M-HeLa cells; type: functional, organism-based
[27] = test system: Human rhinovirus sp.; test: Percent inhibitory activity at 8 uM against rhinoviral 29 serotype in a plaque inhibition assay using monolayers of M-HeLa cells; type: functional
[28] = test system: Human rhinovirus sp.; test: Percent inhibitory activity at 8 uM against rhinoviral 13 serotype in a plaque inhibition assay using monolayers of M-HeLa cells; type: functional
[29] = Antiviral activity against rhinoviral 18 serotype in a plaque inhibition assay using monolayers of M-HeLa cells at 8 uM; type: functional, cell-based; settings: Homo sapiens
[30] = test system: Human rhinovirus sp.; test: Percent inhibitory activity at 8 uM against rhinoviral 19s erotype in a plaque inhibition assay using monolayers of M-HeLa cells; type: functional
[31] = test system: Human rhinovirus sp.; test: Percent inhibitory activity at 8 uM against rhinoviral 31 serotype in a plaque inhibition assay using monolayers of M-HeLa cells; type: functional
[32] = Percent inhibitory activity at 8 uM against rhinoviral 2 serotype in a plaque inhibition assay using monolayers of M-HeLa cells; type: functional, Homo sapiens
[33] = test system: Human rhinovirus sp.; test: Antiviral activity against rhinoviral 21 serotype in a plaque inhibition assay using monolayers of M-HeLa cells; type: functional, organism-based
[34] = as §1; type: functional, cell-based; settings: Homo sapiens
[35] = test system: Human rhinovirus sp.; test: Percent inhibitory activity at 8 uM against rhinoviral 14 serotype in a plaque inhibition assay using monolayers of M-HeLa cells; type: functional
[36] = Percent inhibitory activity at 8 uM against rhinoviral 8 serotype in a plaque inhibition assay using monolayers of M-HeLa cells; type: functional, Homo sapiens
[37] = test system: Human rhinovirus sp.; test: Antiviral activity against rhinoviral 3 serotype in a plaque inhibition assay using monolayers of M-HeLa cells; type: functional, organism-based
[38] = test system: Human rhinovirus sp.; test: Percent inhibitory activity at 8 uM against rhinoviral 15 serotype in a plaque inhibition assay using monolayers of M-HeLa cells; type: functional
[39] = Percent inhibitory activity at 8 uM against rhinoviral-18 serotype in a plaque inhibition assay using monolayers of M-HeLa cells; type: functional, Homo sapiens
[40] = test system: Human rhinovirus sp.; test: Percent inhibitory activity at 8 uM against rhinoviral 4 serotype in a plaque inhibition assay using monolayers of M-HeLa cells; type: functional
[41] = test system: Human rhinovirus sp.; test: Antiviral activity against rhinoviral 19 serotype in a plaque inhibition assay using monolayers of M-HeLa cells; type: functional, organism-based
[42] = Percent inhibitory activity at 4 uM against rhinoviral-1A serotype in a plaque inhibition assay using monolayers of M-HeLa cells; type: functional, Homo sapiens
[43] = test system: Human rhinovirus sp.; test: Antiviral activity against rhinoviral 18 serotype in a plaque inhibition assay using monolayers of M-HeLa cells; type: functional, organism-based
[44] = Percent inhibitory activity at 10 uM against rhinoviral 5 serotype in a plaque inhibition assay using monolayers of M-HeLa cells; type: functional, Homo sapiens
[45] = Percent inhibitory activity at 4 uM against rhinoviral 2 serotype in a plaque inhibition assay using monolayers of M-HeLa cells; type: functional, Homo sapiens

Compound | IC50 [1] | IC50 [2] | IC50 [3] | Inhibition [4] | IC50 [7] | IC50 [9] | Inhibition [11] | IC50 [13] | IC50 [15] | IC50 [16] | IC50 [17] | IC50 [19] | Inhibition [20] | IC50 [21] | Inhibition [22] | Inhibition [23] | IC50 [24] | IC50 [25] | IC50 [26] | Inhibition [28] | also measured
Cc1ccc(Cn2cnc3c(N(C)C)nc(C(F)(F)F)nc32)cc1 | 6.7 µM | 1 µM | 2.6 µM | 40% | 4.2 µM | 0.1 µM | 18% | 5.7 µM | 0.35 µM | 1.2 µM | 1.2 µM | 0.03 µM |  |  |  |  |  |  |  |  | Inhibition [5]: 12%; Inhibition [6]: 41 µM; IC50 [8]: 1.8 µM; IC50 [10]: 2.2 µM; Inhibition [12]: 41 µM; Inhibition [14]: 43 µM; IC50 [18]: 2.6 µM
COc1ccc(Cn2cnc3c(N(C)C)nc(C(F)(F)F)nc32)cc1C | 8.6 µM | 9 µM | 4.1 µM | 16% |  | 2.6 µM |  | 8 µM | 1.3 µM | 7.5 µM |  | 0.2 µM | 20% | > 8 µM | 35 µM | 28% | > 8 µM | 5.5 µM | 1.9 µM | 12% | Inhibition [27]: 27%
CN(C)c1nc(C(F)(F)F)nc2c1ncn2Cc1ccccc1 |  | 4.8 µM | 3.8 µM | 28% | 3.2 µM | 1.1 µM | 33% |  | 0.46 µM | 8 µM |  | 0.04 µM | 19% |  |  | 20% | 8 µM | 8.8 µM | 0.96 µM | 22% | IC50 [29]: 10 µM; Inhibition [30]: 32%; Inhibition [31]: 37%; Inhibition [32]: 33%
CN(C)c1nc(C(F)(F)F)nc2c1ncn2Cc1ccc(S(C)(=O)=O)cc1 | 9 µM |  | 6 µM |  | 3 µM | 2.3 µM | 40% |  |  |  | 4.3 µM | 0.5 µM | 32% |  |  |  |  | 8.8 µM | 2.3 µM |  | IC50 [33]: 9 µM; IC50 [34]: 3.7 µM; Inhibition [35]: 16%; Inhibition [36]: 36%; IC50 [37]: 4.7 µM; Inhibition [32]: 36%; IC50 [18]: 4.2 µM; Inhibition [38]: 47%; Inhibition [39]: 29%
CN(C)c1nc(C(F)(F)F)nc2c1ncn2Cc1ccc(Cl)cc1Cl |  |  | 11 µM | 30% |  | 0.58 µM |  | 6.9 µM | 0.93 µM |  |  | 0.12 µM |  | > 8 µM | 32 µM | 17% | 8.5 µM |  | 0.85 µM | 20% | Inhibition [30]: 40%; Inhibition [31]: 28%; Inhibition [35]: 35%; IC50 [10]: 11 µM; Inhibition [40]: 25%; Inhibition [27]: 15%; Inhibition [38]: 10%
Cc1cc(Cn2cnc3c(N(C)C)nc(C(F)(F)F)nc32)ccc1Cl | 7.7 µM | 6.1 µM | 3.3 µM |  | 7 µM | 1.4 µM |  | 5.2 µM | 1 µM | 8 µM | 9 µM | 0.12 µM | 31% | > 8 µM | 28 µM | 44% | > 8 µM | 7.6 µM | 0.84 µM | 13% | IC50 [33]: 6.3 µM
CN(C)c1nc(C(F)(F)F)nc2c1ncn2Cc1ccc([N+](=O)[O-])cc1 |  |  | 8 µM | 28% | 10 µM |  |  | 8.3 µM | 5.6 µM | 8.6 µM |  | 0.07 µM | 28% |  |  | 43% | 8.1 µM | 4.1 µM | 1.5 µM | 13% | IC50 [41]: 8.8 µM; Inhibition [31]: 37%; Inhibition [42]: 38 µM; IC50 [43]: 5.9 µM; Inhibition [44]: 32%; Inhibition [38]: 31%
CN(C)c1nc(C(F)(F)F)nc2c1ncn2Cc1ccc(C(F)(F)F)cc1 |  | 4.2 µM | 5.2 µM |  | 7.2 µM | 0.91 µM |  |  | 2.2 µM | 7 µM | 6 µM | 0.11 µM | 40% | > 8 µM |  | 44% | > 8 µM | 6 µM | 1.2 µM | 22% | IC50 [41]: 5.2 µM; IC50 [33]: 8.2 µM; Inhibition [45]: 23 µM; IC50 [43]: 6.6 µM
